Assay results from article PMC11157767 (Molecular Cancer, 2024).

System: TFG-MET allograft tumors
Assay: RNA-sequencing, differential expression and GSEA of TFG-MET allograft tumors
Format: in vivo, mouse
Conditions: GSEA CAP vs Veh, C5 GO CC
Protocol: Error bars display standard error of mean, statistical significance was determined using t-test analysis. (****;p<0.0001, ***;p<0.001, **;p<0.01, *;p<0.05). […] Each dot represents an individual replicate. Error bars display standard error of the mean.
Each dot represents one gene.

CNC(=O)c1ccc(-c2cnc3ncc(Cc4ccc5ncccc5c4)n3n2)cc1F [Capmatinib]
NES GOCC_U12_TYPE_SPLICEOSOMAL_COMPLEX (padj 0.00985351): -1.841
NES GOCC_ENDOCYTIC_VESICLE_MEMBRANE (padj 0.00993117): 1.48
NES GOCC_MAIN_AXON (padj 0.0105942): 1.71
NES GOCC_CILIARY_TIP (padj 0.0106966): 1.78
NES GOCC_CILIARY_BASAL_BODY (padj 0.0123456): 1.449
NES GOCC_RNA_POLYMERASE_III_COMPLEX (padj 0.0128749): -1.798
NES GOCC_CATION_CHANNEL_COMPLEX (padj 0.0130428): 1.45
NES GOCC_PROTON_TRANSPORTING_TWO_SECTOR_ATPASE_COMPLEX_CATALYTIC_DOMAIN (padj 0.0138609): 1.892
NES GOCC_SPECIFIC_GRANULE_MEMBRANE (padj 0.0141171): 1.543
NES GOCC_SWI_SNF_SUPERFAMILY_TYPE_COMPLEX (padj 0.0141171): -1.631
NES GOCC_U1_SNRNP (padj 0.015809): -1.765
NES GOCC_MICROBODY (padj 0.0162979): 1.4892
NES GOCC_CHAPERONE_COMPLEX (padj 0.0163882): -1.777
NES GOCC_SPINDLE (padj 0.0181265): -1.395
NES GOCC_AUTOPHAGOSOME_MEMBRANE (padj 0.0181579): 1.734
NES GOCC_DNA_POLYMERASE_COMPLEX (padj 0.0181579): -1.786
NES GOCC_P_BODY (padj 0.0181579): -1.619
NES GOCC_MHC_CLASS_I_PROTEIN_COMPLEX (padj 0.0188701): 1.849
NES GOCC_AZUROPHIL_GRANULE_MEMBRANE (padj 0.0193916): 1.659
NES GOCC_EXOCYTIC_VESICLE (padj 0.0193916): 1.3878
NES GOCC_EXON_EXON_JUNCTION_COMPLEX (padj 0.0194501): -1.776
NES GOCC_SPLICEOSOMAL_TRI_SNRNP_COMPLEX (padj 0.0201459): -1.73
NES GOCC_PLASMA_MEMBRANE_PROTEIN_COMPLEX (padj 0.0211865): 1.208
NES GOCC_SPINDLE_POLE (padj 0.0236958): -1.485
NES GOCC_CYTOPLASMIC_REGION (padj 0.0239917): 1.358
NES GOCC_RIBOSOME (padj 0.0240328): -1.42
NES GOCC_RNA_POLYMERASE_II_HOLOENZYME (padj 0.0260741): -1.585
NES GOCC_PROTEIN_LIPID_COMPLEX (padj 0.030494): 1.7122
NES GOCC_CENTROSOME (padj 0.0306446): -1.299
NES GOCC_PROTEASOME_CORE_COMPLEX (padj 0.0307775): 1.722
NES GOCC_PROTON_TRANSPORTING_V_TYPE_ATPASE_COMPLEX (padj 0.0307775): 1.755
NES GOCC_SNARE_COMPLEX (padj 0.0312218): 1.596
NES GOCC_BLOC_COMPLEX (padj 0.0315137): 1.832
NES GOCC_INTRACILIARY_TRANSPORT_PARTICLE_B (padj 0.0329395): 1.825
NES GOCC_POLYSOMAL_RIBOSOME (padj 0.0334435): -1.667
NES GOCC_AP_TYPE_MEMBRANE_COAT_ADAPTOR_COMPLEX (padj 0.0422332): 1.673
NES GOCC_9PLUS0_NON_MOTILE_CILIUM (padj 0.0467153): 1.3799
NES GOCC_PROTON_TRANSPORTING_ATP_SYNTHASE_COMPLEX (padj 0.0488031): 1.779
NES GOCC_SEX_CHROMOSOME (padj 0.0490653): -1.646
NES GOCC_U2_SNRNP (padj 0.0543003): -1.648
NES GOCC_ENDOCYTIC_VESICLE (padj 0.0582082): 1.305
NES GOCC_HIGH_DENSITY_LIPOPROTEIN_PARTICLE (padj 0.0591592): 1.639
NES GOCC_REPLISOME (padj 0.0619841): -1.586
NES GOCC_ANCHORED_COMPONENT_OF_MEMBRANE (padj 0.0629656): 1.328
NES GOCC_INTRINSIC_COMPONENT_OF_SYNAPTIC_VESICLE_MEMBRANE (padj 0.0629656): 1.526
NES GOCC_MULTIVESICULAR_BODY (padj 0.063611): 1.4828
NES GOCC_NURD_COMPLEX (padj 0.0667331): -1.604
NES GOCC_CYTOPLASMIC_MICROTUBULE (padj 0.0742121): 1.415
NES GOCC_PHOTORECEPTOR_CONNECTING_CILIUM (padj 0.0825356): 1.523
NES GOCC_REGION_OF_CYTOSOL (padj 0.0834337): -1.574
NES GOCC_FILOPODIUM_MEMBRANE (padj 0.0837675): -1.564
